Experimental data reported in paper PMC8034185, “The rumen eukaryotome is a source of novel antimicrobial peptides with therapeutic potential” (BMC Microbiology, 2021).
Converted amounts (≈) assume the structure as drawn. Ends that are not written are not given here.

Assays:
[1] = system: S. aureus MSSA (RN4220); assay: microbe, parasite or virus in culture; assay type: cell-based, Staphylococcus aureus; conditions: 18 h
Description: (§1) MICs against a range of clinically important Gram-positive and Gram-negative bacteria strains including methicillin-sensitive Staphylococcus aureus (MSSA) RN4220 epidemic methicillin-resistant S. aureus-15 (EMRSA-15), methicillin-resistant S. aureus USA300 (MRSA USA300), Bacillus cereus, Enterococcus faecalis JH2–2, Escherichia coli K12, Salmonella enterica serovar Typhimurium SL1344, P. aeruginosa PAO1, and hospital isolates of Acinetobacter baummannii were determined in quadruplicate by a modified microdilution broth method [64] with a final bacterial inoculum concentration of 5 × 10^5 CFU/mL utilised as the test organisms. Cation-adjusted Mueller Hinton (MH) broth was innoclated overnight with a single colony of the tested microorganisms, subsequently grown for 16–24 h with shaking at 225 rpm, and further diluted in the same broth to a final concentration of 5 × 10^5 CFU/mL. The bacterial suspension was added to sterile U-bottomed 96-well plates, and the peptides and control antibiotics to be tested were dissolved in sterile distilled water and serially diluted in the wells. The MICs were recorded as the lowest peptide concentration that inhibited growth after incubation for 18 h [65].

[2] = system: S. aureus USA300; assay: microbe, parasite or virus in culture; assay type: cell-based, Staphylococcus aureus
Description: as §1

[3] = system: S. aureus ATCC 33591; assay: microbe, parasite or virus in culture; assay type: cell-based, Staphylococcus aureus
Description: as §1

[4] = system: S. aureus EMRSA-15; assay: microbe, parasite or virus in culture; assay type: cell-based, Staphylococcus aureus
Description: as §1

[5] = system: Ent. faecalis (JH2–2); assay: microbe, parasite or virus in culture; assay type: cell-based, Enterococcus faecalis; conditions: 18 h
Description: as §1

[6] = system: B. cereus; assay: microbe, parasite or virus in culture; assay type: cell-based, Bacillus cereus; conditions: 18 h
Description: as §1

[7] = system: EMRSA-15 cells; assay: Time-kill assay; assay type: cell-based, Staphylococcus aureus; conditions: for Time dependent kill, Mean Log CFU/ml / Time dependent kill, CFU/ml / Time dependent kill, Log CFU/ml: 3x MIC (24 ug/ml); for Time dependent kill, Mean Log CFU/ml: mean of 3 independent replicates
Description: Time-dependent kill assays were adapted from standard procedures and were all performed as previously using exponential-phase cultures of EMRA-15 MRSA and USA300 grown in MHB (1 × 10^6 CFU/mL). […] Experiments were performed in triplicates, and CFU/mL was calculated at different time points after overnight incubation of inoculated agar plates (MHA) at 37 °C. Kill curves were plotted with CFU/mL against time (h).

[8] = system: E. coli K12; assay: microbe, parasite or virus in culture; assay type: cell-based, Escherichia coli; conditions: modified broth microdilution, cation-adjusted Mueller Hinton broth, inoculum 5 × 10^5 CFU/mL, 18 h, quadruplicate; highest concentration tested 512 μg/mL
Description: as §1

[9] = system: Sal. Tyhimurium (SL1344); assay: microbe, parasite or virus in culture; assay type: cell-based, Salmonella enterica serovar Typhimurium; conditions: modified broth microdilution, cation-adjusted Mueller Hinton broth, inoculum 5 × 10^5 CFU/mL, 18 h, quadruplicate; highest concentration tested 512 μg/mL
Description: as §1

[10] = system: P. aeruginosa PAO1; assay: microbe, parasite or virus in culture; assay type: cell-based, Pseudomonas aeruginosa; conditions: modified broth microdilution, cation-adjusted Mueller Hinton broth, inoculum 5 × 10^5 CFU/mL, 18 h, quadruplicate; highest concentration tested 512 μg/mL
Description: as §1

[11] = system: P. aeruginosa H174; assay: microbe, parasite or virus in culture; assay type: cell-based, Pseudomonas aeruginosa; conditions: modified broth microdilution, cation-adjusted Mueller Hinton broth, inoculum 5 × 10^5 CFU/mL, 18 h, quadruplicate; highest concentration tested 512 μg/mL
Description: as §1

[12] = system: A. baumannii DSMZ 30007; assay: microbe, parasite or virus in culture; assay type: cell-based, Acinetobacter baumannii; conditions: modified broth microdilution, cation-adjusted Mueller Hinton broth, inoculum 5 × 10^5 CFU/mL, 18 h, quadruplicate; highest concentration tested 512 μg/mL
Description: as §1

[13] = system: A. baumannii S27379 Sen; assay: microbe, parasite or virus in culture; assay type: cell-based, Acinetobacter baumannii; conditions: sensitive hospital isolate; modified broth microdilution, cation-adjusted Mueller Hinton broth, inoculum 5 × 10^5 CFU/mL, 18 h, quadruplicate; highest concentration tested 512 μg/mL
Description: as §1

[14] = system: A. baumannii S15785 OXA-23/0XA-50; assay: microbe, parasite or virus in culture; assay type: cell-based, Acinetobacter baumannii; conditions: modified broth microdilution, cation-adjusted Mueller Hinton broth, inoculum 5 × 10^5 CFU/mL, 18 h, quadruplicate; highest concentration tested 512 μg/mL
Description: as §1

[15] = system: A. baumannii IMI/MER-R; assay: microbe, parasite or virus in culture; assay type: cell-based, Acinetobacter baumannii; conditions: imipenem/meropenem resistant; modified broth microdilution, cation-adjusted Mueller Hinton broth, inoculum 5 × 10^5 CFU/mL, 18 h, quadruplicate; highest concentration tested 512 μg/mL
Description: as §1

[16] = modified broth microdilution, cation-adjusted Mueller Hinton broth, inoculum 5 × 10^5 CFU/mL, quadruplicate, highest concentration tested 512 μg/mL
[17] = modified broth microdilution, cation-adjusted Mueller Hinton broth, inoculum 5 × 10^5 CFU/mL, 18 h, quadruplicate, highest concentration tested 512 μg/mL

Work on CN[C@H](CC(C)C)C(=O)N[C@H]1C(=O)N[C@@H](CC(N)=O)C(=O)N[C@H]2C(=O)N[C@H]3C(=O)N[C@H](C(=O)N[C@H](C(=O)O)c4cc(O)cc(O)c4-c4cc3ccc4O)[C@H](O)c3ccc(c(Cl)c3)Oc3cc2cc(c3O[C@@H]2O[C@H](CO)[C@@H](O)[C@H](O)[C@H]2O[C@H]2C[C@](C)(N)[C@H](O)[C@H](C)O2)Oc2ccc(cc2Cl)[C@H]1O [Vancomycin] yielded an MIC ([1]; Staphylococcus aureus, MSSA, read-out: Minimum Inhibitory Concentration, S. aureus MSSA) of 2 µg/mL (≈ 1.38 µM), an MIC ([2]; Staphylococcus aureus, USA300, 18 h, read-out: Minimum Inhibitory Concentration, S. aureus USA300) of 2 µg/mL (≈ 1.38 µM) and an MIC ([3]; Staphylococcus aureus, ATCC33591, 18 h, read-out: Minimum Inhibitory Concentration, S. aureus ATCC 33591) of 2 µg/mL (≈ 1.38 µM). For the same compound, the MIC ([4]; Staphylococcus aureus, EMRSA15, 18 h, read-out: Minimum Inhibitory Concentration, S. aureus EMRSA-15) was 2 µg/mL (≈ 1.38 µM), the MIC ([5]; Enterococcus faecalis, read-out: Minimum Inhibitory Concentration, Ent. faecalis) was 2 µg/mL (≈ 1.38 µM) and the MIC ([6]; Bacillus cereus, read-out: Minimum Inhibitory Concentration, B. cereus) was 2 µg/mL (≈ 1.38 µM). For the same compound, the “Time dependent kill, Mean Log CFU/ml” value ([7]; 0 min) was 6.839 Log CFU/ml, the “Time dependent kill, Mean Log CFU/ml” value ([7]; 10 min) was 6.579 Log CFU/ml and the “Time dependent kill, Mean Log CFU/ml” value ([7]; 30 min) was 6.503 Log CFU/ml. The “Time dependent kill, Mean Log CFU/ml” value ([7]; 60 min) was 6.404 Log CFU/ml, the “Time dependent kill, Mean Log CFU/ml” value ([7]; 120 min) was 5.884 Log CFU/ml and the “Time dependent kill, Mean Log CFU/ml” value ([7]; 240 min) was 5.168 Log CFU/ml. For the same compound, the “Time dependent kill, Mean Log CFU/ml” value ([7]; 360 min) was 4.661 Log CFU/ml, the “Time dependent kill, Mean Log CFU/ml” value ([7]; 1440 min) was 0 Log CFU/ml and the “Time dependent kill, CFU/ml” value ([7]; T0 min, Exp1) was 7200000 CFU/ml. The “Time dependent kill, CFU/ml” value ([7]; T0 min, Exp2) was 7600000 CFU/ml, the “Time dependent kill, CFU/ml” value ([7]; T0 min, Exp3) was 6000000 CFU/ml and the “Time dependent kill, Log CFU/ml” value ([7]; T0 min, Exp3) was 6.778 Log CFU/ml. The “Time dependent kill, CFU/ml” value ([7]; T10 min, Exp1) was 3800000 CFU/ml, the “Time dependent kill, Log CFU/ml” value ([7]; T10 min, Exp1) was 6.58 Log CFU/ml and the “Time dependent kill, CFU/ml” value ([7]; T10 min, Exp2) was 3600000 CFU/ml. The “Time dependent kill, Log CFU/ml” value ([7]; T10 min, Exp2) was 6.5563 Log CFU/ml, the “Time dependent kill, CFU/ml” value ([7]; T10 min, Exp3) was 4000000 CFU/ml and the “Time dependent kill, Log CFU/ml” value ([7]; T10 min, Exp3) was 6.602 Log CFU/ml. The “Time dependent kill, CFU/ml” value ([7]; T30 min, Exp1) was 2800000 CFU/ml, the “Time dependent kill, Log CFU/ml” value ([7]; T30 min, Exp1) was 6.447 Log CFU/ml and the “Time dependent kill, CFU/ml” value ([7]; T30 min, Exp2) was 4800000 CFU/ml. For the same compound, the “Time dependent kill, Log CFU/ml” value ([7]; T30 min, Exp2) was 6.681 Log CFU/ml, the “Time dependent kill, CFU/ml” value ([7]; T30 min, Exp3) was 2400000 CFU/ml and the “Time dependent kill, Log CFU/ml” value ([7]; T30 min, Exp3) was 6.38 Log CFU/ml. The “Time dependent kill, CFU/ml” value ([7]; T60 min, Exp1) was 2000000 CFU/ml, the “Time dependent kill, Log CFU/ml” value ([7]; T60 min, Exp1) was 6.301 Log CFU/ml and the “Time dependent kill, CFU/ml” value ([7]; T60 min, Exp2) was 3400000 CFU/ml. For the same compound, the “Time dependent kill, Log CFU/ml” value ([7]; T60 min, Exp2) was 6.531 Log CFU/ml, the “Time dependent kill, CFU/ml” value ([7]; T60 min, Exp3) was 2400000 CFU/ml and the “Time dependent kill, Log CFU/ml” value ([7]; T60 min, Exp3) was 6.38 Log CFU/ml. For the same compound, the “Time dependent kill, CFU/ml” value ([7]; T120 min, Exp1) was 800000 CFU/ml, the “Time dependent kill, Log CFU/ml” value ([7]; T120 min, Exp1) was 5.903 Log CFU/ml and the “Time dependent kill, CFU/ml” value ([7]; T120 min, Exp2) was 700000 CFU/ml. The “Time dependent kill, Log CFU/ml” value ([7]; T120 min, Exp2) was 5.8451 Log CFU/ml, the “Time dependent kill, CFU/ml” value ([7]; T120 min, Exp3) was 800000 CFU/ml and the “Time dependent kill, Log CFU/ml” value ([7]; T120 min, Exp3) was 5.903 Log CFU/ml. The “Time dependent kill, CFU/ml” value ([7]; T240 min, Exp1) was 80000 CFU/ml, the “Time dependent kill, Log CFU/ml” value ([7]; T240 min, Exp1) was 4.9031 Log CFU/ml and the “Time dependent kill, CFU/ml” value ([7]; T240 min, Exp2) was 100000 CFU/ml. The “Time dependent kill, Log CFU/ml” value ([7]; T240 min, Exp2) was 5 Log CFU/ml, the “Time dependent kill, CFU/ml” value ([7]; T240 min, Exp3) was 400000 CFU/ml and the “Time dependent kill, Log CFU/ml” value ([7]; T240 min, Exp3) was 5.602 Log CFU/ml. For the same compound, the “Time dependent kill, CFU/ml” value ([7]; T360 min, Exp1) was 60000 CFU/ml, the “Time dependent kill, Log CFU/ml” value ([7]; T360 min, Exp1) was 4.778 Log CFU/ml and the “Time dependent kill, CFU/ml” value ([7]; T360 min, Exp2) was 40000 CFU/ml. For the same compound, the “Time dependent kill, Log CFU/ml” value ([7]; T360 min, Exp2) was 4.602 Log CFU/ml, the “Time dependent kill, CFU/ml” value ([7]; T360 min, Exp3) was 40000 CFU/ml and the “Time dependent kill, Log CFU/ml” value ([7]; T360 min, Exp3) was 4.602 Log CFU/ml. For the same compound, the “Time dependent kill, CFU/ml” value ([7]; T1440 min, Exp1) was 0 CFU/ml, the “Time dependent kill, Log CFU/ml” value ([7]; T1440 min, Exp1) was 0 Log CFU/ml and the “Time dependent kill, CFU/ml” value ([7]; T1440 min, Exp2) was 0 CFU/ml. The “Time dependent kill, Log CFU/ml” value ([7]; T1440 min, Exp2) was 0 Log CFU/ml, the “Time dependent kill, CFU/ml” value ([7]; T1440 min, Exp3) was 0 CFU/ml and the “Time dependent kill, Log CFU/ml” value ([7]; T1440 min, Exp3) was 0 Log CFU/ml. The “reduction in viable cells, time-kill” value ([7]; EMRSA-15, 3× MIC, after 6 h) was ≥ 10^3 CFU/mL.
KGLTVKFKVKN [Lub_376] was tested, and the “Minimum Inhibitory Concentration, S. aureus MSSA” value [1, 16] was greater than 512 µg/mL, the “Minimum Inhibitory Concentration, S. aureus USA300” value [2, 17] was greater than 512 µg/mL and the “Minimum Inhibitory Concentration, S. aureus ATCC 33591” value [3, 17] was greater than 512 µg/mL. The “Minimum Inhibitory Concentration, S. aureus EMRSA-15” value [4, 17] was greater than 512 µg/mL, the “Minimum Inhibitory Concentration, Ent. faecalis” value [5, 16] was greater than 512 µg/mL and the “Minimum Inhibitory Concentration, B. cereus” value [6, 16] was greater than 512 µg/mL. For the same compound, the “Minimum Inhibitory Concentration, E. coli K12” value [8] was greater than 512 µg/mL, the “Minimum Inhibitory Concentration, Sal. Tyhimurium” value [9] was greater than 512 µg/mL and the “Minimum Inhibitory Concentration, P. aeruginosa PAO1” value [10] was greater than 512 µg/mL. For the same compound, the “Minimum Inhibitory Concentration, P. aeruginosa H174” value [11] was greater than 512 µg/mL, the “Minimum Inhibitory Concentration, A. baumannii DSMZ 30007” value [12] was greater than 512 µg/mL and the “Minimum Inhibitory Concentration, A. baumannii S27379 Sen” value [13] was greater than 512 µg/mL. The “Minimum Inhibitory Concentration, A. baumannii S15785 OXA-23/0XA-50” value [14] was greater than 512 µg/mL and the “Minimum Inhibitory Concentration, A. baumannii IMI/MER-R” value [15] was greater than 512 µg/mL.
